Reference: US20230104936A1, “TRPML MODULATORS” (Casma Therapeutics, Inc., priority 2019, published 2023)

System: TFEB
Test: TFEB nuclear translocation assay, HeLa wt cells
Format: cell-based
Conditions: 2 hrs compound treatment, Table 1 does not say HeLa wt or TRPML1 KO
Procedure: For the TFEB nuclear translocation assay, HeLa wt or HeLa TRPML1 KO cells were plated at 2700 cells/well into black-walled, 384-well Cell carrier Ultra tissue culture treated plates in complete media and incubated overnight. The next day, cells are treated for 2 hrs with compounds and incubated at 37° C. Cells were then fixed for 30 minutes at room temperature in 4% final PFA and washed five times with 90 μL PBS. PBS is aspirated from the wells and the cells are blocked with 7.5 μL blocking buffer (1:1 PBS/Odyssey block buffer containing 0.1% triton x-100 and 1% goat serum). After 30-60 minutes of block, 7.5 μL of primary anti-TFEB (rabbit) antibody is added for a final dilution of 1:200 antibody in 15 μL blocking buffer. Plates are incubated overnight at 4° C. The following day, plates are washed again into PBS, 90 μL with 5 washes, all PBS is aspirated from the wells and the cells are incubated for 1 hr in 1:1000 goat-anti rabbit Alexa 488 secondary antibody, also containing 10 μg/mL Hoechst 33342. After the 1 hr room temperature incubation, plates are washed a final time into PBS, sealed with foil and imaged with an automated epifluorescence microscopy (PerkinElmer Operetta CLS). Four different fields were imaged per well using ×20 magnification for DAPI and FITC filter sets. Images were quantified using PerkinElmer Harmony software, briefly: apply flatfield correction (basic/advanced) for input images. Use the Find Nuclei building block with channel set at Hoechst to find the nuclei. Use the Find cytoplasm building block with channel set to Alexa 488 to find the cytoplasm. Use select cell region with Channel set at Alexa 488 and region of interest as Nuclei and define outer border at 0 μm and inner at 45 μm to cover complete nuclei. Use select cell region with Channel set at Alexa 488 and region of interest as ring region and define outer border at −5 μm and inner at 0 μm to define a ring around the nucleus. Use the find calculate intensity parameter to calculate intensity of the nuclear region and the ring region. Define results as Number of nuclei and ratio of A/B where A is Intensity of Nuclei and B is intensity of the ring region.
The compound numbers correspond to the compound numbers above in Tables A or B. Compounds having an activity designated as “++++” provided an AC50 of ≤2.00 μM; compounds having an activity designated as “+++” provided an AC50 of 2.01-8.00 μM; compounds having an activity designated as “++” provided an AC50 of 8.01-9.99 μM; and compounds having an activity designated as “+” provided an AC50 of ≥10.00 μM.

SMILES	AC50	AC50 (Homo sapiens, HeLa, 2 h)
CC(c1cccc(F)c1N1CCC(CN2C[C@@H](C)O[C@@H](C)C2)CC1)S(=O)(=O)c1ccc(S(=O)(=O)C(F)F)cc1 (single isomer, unassigned) [Compound A-808, 4-((1-(2-(1-((4-((difluoromethyl)sulfonyl)phenyl)sulfonyl)ethyl)-6-fluorophenyl)piperidin-4-yl)methyl)-2,6-dimethylmorpholine]	≤ 2 µM	
COCC1(C)CCN(c2ccccc2NS(=O)(=O)c2ccc(C(C)C)cc2)CC1 [Compound A-706, N-{2-[4-(methoxymethyl)-4-methylpiperidin-1-yl]phenyl}-4-(propan-2-yl)benzene-1-sulfonamide]		≤ 2 µM
COCC1(C)CCN(c2ccccc2NS(=O)(=O)c2ccc(F)c(C)c2)CC1 [Compound A-616, 4-fluoro-N-{2-[4-(methoxymethyl)-4-methylpiperidin-1-yl]phenyl}-3-methylbenzene-1-sulfonamide]		2.01 to 8 µM
Cc1ccc(S(=O)(=O)Nc2ccccc2N2CCC(c3ccccn3)CC2)cc1 [Compound A-92, 4-methyl-N-{2-[4-(pyridin-2-yl)piperidin-1-yl]phenyl}benzene-1-sulfonamide]		≤ 2 µM
CCOC(=O)CC1(F)CCN(c2ccccc2NS(=O)(=O)c2ccc(S(=O)(=O)N(C)C)cc2)CC1 [Compound A-703, ethyl 2-(1-{2-[4-(dimethylsulfamoyl)benzenesulfonamido]phenyl}-4-fluoropiperidin-4-yl)acetate]		≤ 2 µM
CC(C)(C)C(=O)N1CCN(c2ccccc2NS(=O)(=O)Cc2ccc(Br)cc2F)CC1 [Compound A-488, 1-(4-bromo-2-fluorophenyl)-N-{2-[4-(2,2-dimethylpropanoyl)piperazin-1-yl]phenyl}methanesulfonamide]		8.01 to 9.99 µM
C[C@@H]1COC[C@H](C)N1C[C@H]1CCN(c2c(F)cccc2NS(=O)(=O)c2ccc(S(=O)(=O)N(C)C)cc2)C1 [Compound A-984]		≤ 2 µM
CN1CC2(CCN(c3ccccc3NS(=O)(=O)c3ccc(S(C)(=O)=O)cc3)CC2)c2ncccc21 [Compound A-320, 4-methanesulfonyl-N-(2-{1′-methyl-1′,2′-dihydrospiro[piperidine-4,3′-pyrrolo[3,2-b]pyridin]-1-yl}phenyl)benzene-1-sulfonamide; formic acid]		≥ 10 µM
CNC1(c2ccc(Cl)cc2F)CCN(c2ccccc2NS(=O)(=O)c2ccc(S(=O)(=O)N(C)C)cc2)CC1 [Compound A-212, N4-{2-[4-(4-chloro-2-fluorophenyl)-4-(methylamino)piperidin-1-yl]phenyl}-N1,N1-dimethylbenzene-1,4-disulfonamide]		≤ 2 µM
COCC1(C)CCN(c2c(NS(=O)(=O)c3ccc(S(=O)(=O)N(C)C)cc3)ccc3c2cnn3C)CC1 [Compound A-746, N4-{4-[4-(methoxymethyl)-4-methylpiperidin-1-yl]-1-methyl-1H-indazol-5-yl}-N1,N1-dimethylbenzene-1,4-disulfonamide]		≤ 2 µM
Cc1cc(NS(=O)(=O)c2ccc(S(=O)(=O)N(C)C)cc2)n(C2CCCCC2)c(=O)c1 [Compound A-934, N4-(1-cyclohexyl-4-methyl-6-oxo-1,6-dihydropyridin-2-yl)-N1,N1-dimethylbenzene-1,4-disulfonamide]		≥ 10 µM
CN1CCC(N(C)S(=O)(=O)c2ccc(NC(=O)COc3ccccc3-c3ccccc3)cc2)CC1 [Compound A-404, 2-{[1,1′-biphenyl]-2-yloxy}-N-{4-[methyl(1-methylpiperidin-4-yl)sulfamoyl]phenyl}acetamide]		2.01 to 8 µM
CC(C)(C)C(=O)N1CCN(c2ccccc2NS(=O)(=O)c2ccc(OCC(F)(F)F)cc2)CC1 [Compound A-591, N-{2-[4-(2,2-dimethylpropanoyl)piperazin-1-yl]phenyl}-4-(2,2,2-trifluoroethoxy)benzene-1-sulfonamide]		≥ 10 µM
CC1(C)CC2(CCN(c3ccccc3NS(=O)(=O)c3ccc4c(c3)CC(C)(C)O4)CC2)CO1 [Compound A-635, N-(2-{3,3-dimethyl-2-oxa-8-azaspiro[4.5]decan-8-yl}phenyl)-2,2-dimethyl-2,3-dihydro-1-benzofuran-5-sulfonamide]		2.01 to 8 µM
CN(C)S(=O)(=O)c1ccc(S(=O)(=O)Nc2ccccc2C2CCN(c3ccc(Cl)cc3F)CC2)cc1 [Compound A-22, N1-(2-(1-(4-chloro-2-fluorophenyl)piperidin-4-yl)phenyl)-N4,N4-dimethylbenzene-1,4-disulfonamide]		2.01 to 8 µM
CC(C)(C)C(=O)N1CCN(c2ccccc2NS(=O)(=O)c2ccc(OC3CCCC3)cc2)CC1 [Compound A-536, 4-(cyclopentyloxy)-N-{2-[4-(2,2-dimethylpropanoyl)piperazin-1-yl]phenyl}benzene-1-sulfonamide]		8.01 to 9.99 µM
COCC1(C)CCN(c2ccccc2NS(=O)(=O)Cc2cccc(C(C)(C)C)c2)CC1 [Compound A-627, 1-(3-tert-butylphenyl)-N-{2-[4-(methoxymethyl)-4-methylpiperidin-1-yl]phenyl}methanesulfonamide]		2.01 to 8 µM
CN(C)S(=O)(=O)c1ccc(S(=O)(=O)Nc2ccccc2N2CCC3(CCCO3)CC2)cc1 [Compound A-584, N1,N1-dimethyl-N4-(2-{1-oxa-8-azaspiro[4.5]decan-8-yl}phenyl)benzene-1,4-disulfonamide]		≤ 2 µM
Cc1ccc(S(=O)(=O)Nc2ccccc2N2CCN(C(=O)C(O)c3ccccc3)CC2)cc1 (centres unmarked) [Compound A-349, N-{2-[4-(2-hydroxy-2-phenylacetyl)piperazin-1-yl]phenyl}-4-methylbenzene-1-sulfonamide]		≥ 10 µM
CC(C)OC(=O)N1CCN(c2ccccc2NS(=O)(=O)c2ccc(S(=O)(=O)N(C)C)cc2)CC1 [Compound A-336, propan-2-yl 4-{2-[4-(dimethylsulfamoyl)benzenesulfonamido]phenyl}piperazine-1-carboxylate]		≤ 2 µM
Cn1ccc(S(=O)(=O)Nc2ccccc2N2CCN(c3ccc(Cl)cc3F)CC2)n1 [Compound A-21, N-{2-[4-(4-chloro-2-fluorophenyl)piperazin-1-yl]phenyl}-1-methyl-1H-pyrazole-3-sulfonamide]		2.01 to 8 µM
C[C@@H]1CN(CC2CCN(c3c(C#N)cccc3NS(=O)(=O)c3ccc(S(=O)(=O)N(C)C)cc3)CC2)C[C@H](C)O1 [Compound A-878, N4-[3-cyano-2-(4-{[(2R,6S)-2,6-dimethylmorpholin-4-yl]methyl}piperidin-1-yl)phenyl]-N1,N1-dimethylbenzene-1,4-disulfonamide]		≤ 2 µM
O=S1(=O)CCC2(CC1)CN(c1ccc(Cl)cc1NS(=O)(=O)c1ccc3c(c1)CCC3)CCO2 [Compound A-317, N-(5-chloro-2-{9,9-dioxo-1-oxa-9λ^6-thia-4-azaspiro[5.5]undecan-4-yl}phenyl)-2,3-dihydro-1H-indene-5-sulfonamide]		2.01 to 8 µM
O=C(c1ccc(S(=O)(=O)Nc2ccccc2N2CCC(c3ccc(Cl)cc3F)CC2)cc1)N1CCCC1 [Compound A-49, N-{2-[4-(4-chloro-2-fluorophenyl)piperidin-1-yl]phenyl}-4-(pyrrolidine-1-carbonyl)benzene-1-sulfonamide]		≥ 10 µM
CC1(C)CC2(CCN(c3ccccc3NS(=O)(=O)CCc3ccccc3)CC2)CO1 [Compound A-743, N-(2-{3,3-dimethyl-2-oxa-8-azaspiro[4.5]decan-8-yl}phenyl)-2-phenylethane-1-sulfonamide]		≥ 10 µM
CN(C)S(=O)(=O)c1ccc(S(=O)(=O)Nc2ccccc2N2CCN(C(=O)C3CC3(C)C)CC2)cc1 (centres unmarked) [Compound A-427, N4-{2-[4-(2,2-dimethylcyclopropanecarbonyl)piperazin-1-yl]phenyl}-N1,N1-dimethylbenzene-1,4-disulfonamide]		2.01 to 8 µM
O=S(=O)(Nc1cc(Cl)ccc1N1CCC(c2c(F)cccc2F)CC1)c1ccc2c(c1)CCC2 [Compound A-292, N-{5-chloro-2-[4-(2,6-difluorophenyl)piperidin-1-yl]phenyl}-2,3-dihydro-1H-indene-5-sulfonamide]		≤ 2 µM
COc1ccc(S(=O)(=O)Nc2ccccc2-c2ncc(F)cc2F)cc1 [Compound A-180, N-(2-(3,5-difluoropyridin-2-yl)phenyl)-4-methoxybenzenesulfonamide]		8.01 to 9.99 µM
CN(C)S(=O)(=O)c1ccc(S(=O)(=O)Nc2cccc(F)c2N2CCC(N3CCC4(CCOC4)C3)CC2)cc1 (single isomer, unassigned) [Compound A-909, N1-(2-(4-(2-oxa-7-azaspiro[4.4]nonan-7-yl)piperidin-1-yl)-3-fluorophenyl)-N4,N4-dimethylbenzene-1,4-disulfonamide]		2.01 to 8 µM
